Laboratory results from patent US20150344427A1 (EPIZYME, INC., priority 2012, published 2015).
pIC50: −log10 of the molar value.

Tested on: H3K27 trimethylation in WSU-DLCL2 cells
Experiment: WSU-DLCL2 Methylation Assay (H3K27me3 ELISA)
Format: cell-based
Conditions: Homo sapiens, WSUDLCL2, 96 hours incubation, H3K27me3 normalised to total Histone H3
Description: WSU-DLCL2 suspension cells were purchased from DSMZ (German Collection of Microorganisms and Cell Cultures, Braunschweig, Germany). RPMI/Glutamax Medium, Penicillin-Streptomycin, Heat Inactivated Fetal Bovine Serum, and D-PBS were purchased from Life Technologies, Grand Island, N.Y., USA. Extraction Buffer and Neutralization Buffer (5×) were purchased from Active Motif, Carlsbad, Calif., USA. Rabbit anti-Histone H3 antibody was purchased from Abcam, Cambridge, Mass., USA. Rabbit anti-H3K27me3 and HRP-conjugated anti-rabbit-IgG were purchased from Cell Signaling Technology, Danvers, Mass., USA. TMB “Super Sensitive” substrate was sourced from BioFX Laboratories, Owings Mills, Md., USA. IgG-free Bovine Serum Albumin was purchased from Jackson ImmunoResearch, West Grove, Pa., USA. PBS with Tween (10×PBST) was purchased from KPL, Gaithersburg, Md., USA. Sulfuric Acid was purchased from Ricca Chemical, Arlington, Tex., USA. Immulon ELISA plates were purchased from Thermo, Rochester, N.Y., USA. V-bottom cell culture plates were purchased from Corning Inc., Corning, N.Y., USA. V-bottom polypropylene plates were purchased from Greiner Bio-One, Monroe, N.C., USA.
WSU-DLCL2 suspension cells were maintained in growth medium (RPMI 1640 supplemented with 10% v/v heat inactivated fetal bovine serum and 100 units/mL penicillin-streptomycin) and cultured at 37° C. under 5% CO2 Under assay conditions, cells were incubated in Assay Medium (RPMI 1640 supplemented with 20% v/v heat inactivated fetal bovine serum and 100 units/mL penicillin-streptomycin) at 37° C. under 5% CO2 on a plate shaker.
WSU-DLCL2 cells were seeded in assay medium at a concentration of 50,000 cells per mL to a 96-well V-bottom cell culture plate with 200 μL per well. Compound (1 μL) from 96 well source plates was added directly to V-bottom cell plate. Plates were incubated on a titer-plate shaker at 37° C., 5% CO2 for 96 hours. After four days of incubation, plates were spun at 241×g for five minutes and medium was aspirated gently from each well of cell plate without disturbing cell pellet. Pellet was resuspended in 200 μL DPBS and plates were spun again at 241×g for five minutes. The supernatant was aspirated and cold (4° C.) Extraction buffer (100 μL) was added per well. Plates were incubated at 4° C. on orbital shaker for two hours. Plates were spun at 3427×g×10 minutes. Supernatant (80 μL per well) was transferred to its respective well in 96 well V-bottom polypropylene plate. Neutralization Buffer 5× (20 μL per well) was added to V-bottom polypropylene plate containing supernatant. V-bottom polypropylene plates containing crude histone preparation (CHP) were incubated on orbital shaker x five minutes. Crude Histone Preparations were added (2 μL per well) to each respective well into duplicate 96 well ELISA plates containing 100 μL Coating Buffer (1×PBS+BSA 0.05% w/v). Plates were sealed and incubated overnight at 4° C. The following day, plates were washed three times with 300 μL per well 1×PBST. Wells were blocked for two hours with 300 μL per well ELISA Diluent ((PBS (1×) BSA (2% w/v) and Tween20 (0.05% v/v)). Plates were washed three times with 1×PBST. For the Histone H3 detection plate, 100 μL per well were added of anti-Histone-H3 antibody (Abcam, ab1791) diluted 1:10,000 in ELISA Diluent. For H3K27 trimethylation detection plate, 100 μL per well were added of anti-H3K27me3 diluted 1:2000 in ELISA diluent. Plates were incubated for 90 minutes at room temperature. Plates were washed three times with 300 μL 1×PBST per well. For Histone H3 detection, 100 μL of HRP-conjugated anti-rabbit IgG antibody diluted to 1:6000 in ELISA diluent was added per well. For H3K27me3 detection, 100 μL of HRP conjugated anti-rabbit IgG antibody diluted to 1:4000 in ELISA diluent was added per well. Plates were incubated at room temperature for 90 minutes. Plates were washed four times with 1×PBST 300 μL per well. TMB substrate 100 μL was added per well. […]

CCn1c(C)cc(=O)c(CNC(=O)c2cc(Cl)cc(N(CC)[C@H]3CC[C@H](N(C)C)CC3)c2C)c1C [Compound 87]
pIC50: < 4.30

CCN(c1cc(-c2ccc(OCCOC)cc2)cc(C(=O)NCc2c(C)[nH]c(C)cc2=O)c1C)[C@H]1CC[C@H](N(C)C)CC1 [Compound 93]
pIC50: 5.77

CCN(c1cc(-c2cnc(C)cn2)cc(C(=O)NCc2c(Cl)[nH]c(C)cc2=O)c1C)[C@H]1CC[C@H](N(C)C)CC1 [Compound 91]
pIC50: 5.48

CCN(c1cc(-c2ccc(OCCOC)cc2)cc(C(=O)NCc2c(Cl)[nH]c(C)cc2=O)c1C)[C@H]1CC[C@H](N(C)C)CC1 [Compound 92]
pIC50: 5.41

CCN(c1cc(-c2ccc(COC)nc2)cc(C(=O)NCc2c(Cl)[nH]c(C)cc2=O)c1C)[C@H]1CC[C@H](N(C)C)CC1 [Compound 88]
pIC50: 5.62

CCN(c1cc(-c2ccc(C)nc2)cc(C(=O)NCc2c(Cl)[nH]c(C)cc2=O)c1C)[C@H]1CC[C@H](N(C)C)CC1 [Compound 90]
pIC50: 5.57

CCN(c1cc(Cl)cc(C(=O)NCc2c(C)[nH]c(C)cc2=O)c1C)[C@H]1CC[C@H](N(C)C)CC1 [Compound 1, 5-chloro-N-((2,6-dimethyl-4-oxo-1,4-dihydropyridin-3-yl)methyl)-3-(((trans)-4-(dimethylamino)cyclohexyl)(ethyl)amino)-2-methylbenzamide]
pIC50: 5.07

CCN(c1cc(Cl)cc(C(=O)NCc2c(C)n(C)c(C)cc2=O)c1C)[C@H]1CC[C@H](N(C)C)CC1 [Compound 86]
pIC50: < 4.30

CCN(c1cc(-c2ccc(OCCOC)cc2)cc(C(=O)NCc2c(C)[nH]c(C)cc2=O)c1C)[C@H]1CC[C@H](N(C)CCOC)CC1 [Compound 100]
pIC50: 5.12

CCCN(c1cc(-c2ccc(OCCOC)cc2)cc(C(=O)NCc2c(C)[nH]c(C)cc2=O)c1C)[C@H]1CC[C@H](N(C)C)CC1 [Compound 94]
pIC50: 5.29

CCN(c1cc(-c2cnn(C)c2)cc(C(=O)NCc2c(Cl)[nH]c(C)cc2=O)c1C)[C@H]1CC[C@H](N(C)C)CC1 [Compound 89]
pIC50: 5.23
